Measured values taken from US6878751B1, “Administration of resveratrol to treat inflammatory respiratory disorders” (Imperial College of Science Technology and Medicine, priority 2000, dated 2005).

Tests used:
Format in all cases: in vivo, human
Patients with asthma = assay: Oral resveratrol clinical evaluation in asthma (Example 3); settings: oral, 200, 2000 or 3000 mg/day, about six months
Experimental: Resveratrol is evaluated clinically for efficacy in treating asthma. The methods of the following references are generally used in the evaluation of asthmatic disease: Wohl et al. (2000) N. Engl. J. Med. 343(15):1113-4; Agertoft et al. (2000) N. Engl. J. Med. 343(15):1064-9. Patients with asthma are treated once or more per day with gelatin capsules containing resveratrol. Patients are divided randomly and blindly into four approximately equal groups that receive either 0 (placebo), 200, 2000, or 3000 mg/day resveratrol for about six months in oral doses of 0, 50, 500, or 750 mg administered 4 times daily for about six months. Patients are medically monitored for clinical symptoms of asthma throughout the study, including frequency and severity of acute asthma attacks. […] In addition exhaled nitric oxide (NO) and carbon monoxide (CO) levels may be measured at more frequent intervals, such as every other week. Forced expiratory volume (FEV) and forced inspiratory volume (FIV) are also evaluated to measure airway patency as a direct measure of clinical morbidity and to determine correlation the histopathologic and other indicators of clinical disease, such as exhaled NO Immunhistopathologic examination of lung tissue biopsy samples taken at the same intervals as the blood samples are also examined for histopathologic evidence of extent and histology of inflammation.

[1] = test system: Asthmatic steroid naive children; assay: Resveratrol substitution for glucocorticoids in asthmatic steroid naive children (Example 6)
Experimental: Asthmatic steroid naive children with asthma disease severe enough to require chronic pulmonary steroid therapy are divided randomly and blindly into three groups. The duration of the study should be long, as pulmonary steroids for asthma are a chronic therapy, thus 1 to 2 years or more is optimal. The first group is treated with oral resveratrol, with the group subdivided randomly and blindly into four approximately equal subgroups that receive either 0 (placebo), 200, 2000, or 3000 mg/day resveratrol for about 12 to 24 months in oral doses of 0, 50, 500, or 750 mg administered 4 times daily for about 12 to 24 months. […]
The methods of the following references may be used in the evaluation of asthmatic disease: Wohl et al. (2000) N. Engl. […] Patients are medically monitored for clinical symptoms of asthma throughout the study, including frequency and severity of acute asthma attacks. […] In addition exhaled nitric oxide (NO) and carbon monoxide (CO) levels may be measured at more frequent intervals, such as every other week. Forced expiratory volume (FEV) and forced inspiratory volume (FIV) are also evaluated to measure airway patency as a direct measure of clinical morbidity and to determine correlation the histopathologic and other indicators of clinical disease, such as exhaled NO. […]

COPD patients = assay: Pulmonary resveratrol clinical evaluation in COPD (Example 9); settings: inhaled, 4, 8 or 20 mg/day
Experimental: Pulmonary administration of resveratrol for COPD may be evaluated by the method preceding in Example 8, using the inhaled doses specified in Example 4. Specifically the subgroups receive either 0 (placebo), 4, 8, or 20 mg/day resveratrol in inhaled doses of 0, 1, 2, or 5 mg administered 4 times daily for th duration of the study.

Oc1ccc(/C=C/c2cc(O)cc(O)c2)cc1 [Resveratrol, 3,5,4′-trihydroxystilbene]
efficacy in treating asthma (Patients with asthma): effective for treating asthma | efficacy as substitute for inhaled steroids in treating asthma ([1]; oral or pulmonary resveratrol vs pulmonary budenoside, 12 to 24 months): effective as substitutes for antiinflammatory treatment with inhaled steroids in treating asthma | systemic side effects compared with inhaled glucocorticoids ([1]; oral or pulmonary resveratrol, including suppression of growth): reduced systemic side effects | efficacy in treating COPD (COPD patients): effective for treating COPD
